One block for each molecule: values may come before it. Where a SMILES comes first, the peptide text is derived from it. Where no end group is shown, it is not given here. [ ]: non-standard residue; d: D form. dPhe(F5) = N[C@H](Cc1c(F)c(F)c(F)c(F)c1F)C(=O)O
Legend:
GRP receptor [1] = biological target: T1, GRP receptor (Rattus norvegicus, UniProt P52500); experiment: Calcium mobilization assay in AR42J cells (Fura-2AM); type: cell-based; conditions: for increase of intracellular calcium concentration: peptide alone at 10 nM, AR42J cells
T1 construct: endogenous in cells; host or cells: Rat AR42J cells
T1 sequence (P52500 whole entry): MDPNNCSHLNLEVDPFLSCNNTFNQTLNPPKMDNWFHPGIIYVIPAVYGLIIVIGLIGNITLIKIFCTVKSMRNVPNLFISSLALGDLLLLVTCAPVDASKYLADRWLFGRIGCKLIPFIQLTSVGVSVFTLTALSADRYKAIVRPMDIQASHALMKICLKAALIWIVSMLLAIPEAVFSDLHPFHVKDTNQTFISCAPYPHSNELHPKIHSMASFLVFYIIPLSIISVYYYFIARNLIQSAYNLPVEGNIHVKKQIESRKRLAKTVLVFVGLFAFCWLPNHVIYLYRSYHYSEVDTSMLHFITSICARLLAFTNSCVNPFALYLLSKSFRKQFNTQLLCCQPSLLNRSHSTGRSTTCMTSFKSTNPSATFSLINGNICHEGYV
Method: A working example follows:
Rat AR42J cells were cultured in DMEM medium containing 10% fetal bovine serum (Sigma, St. Louis, Mo.) in an atmosphere of 5% CO2 and 95% air at 37° C. After 5 days of culture, the cells were harvested by incubating in a 0.3% EDTA/phosphate buffered saline solution (Sigma, St. Louis, Mo.) (25° C.) and washed twice by centrifugation. The washed cells were resuspended in Hank's-buffered saline solution (HBSS) (Sigma, St. Louis, Mo.) for loading of the fluorescent Ca^2+ indicator Fura-2AM (Molecular Probes, Eugene, Oreg.). Cell suspensions of approximately 10^6 cells/ml were incubated with 2 μM Fura-2AM for 30 min at 25° C. Unloaded Fura-2AM was removed by centrifugation (twice) in HBSS, and the final cell suspensions were transferred to a spectrofluorometer (Hitachi F-2000, Tokyo, Japan) equipped with a magnetic stirring mechanism and a temperature-regulated cuvette holder. After equilibration to 37° C., a test peptide or a known GRP […] was added for measurement of Ca^2+ mobilization. The excitation and emission wavelengths were 340 and 510 nm, respectively.

pulmonary haemodynamics = conditions: wide range of experimental conditions; cited from earlier work
[2] = tested on: isolated pulmonary arteries; conditions: cited from earlier work
[3] = tested on: patient with pulmonary hypertension; experiment: Infusion in a patient with pulmonary hypertension secondary to liver disease (Swan-Ganz catheterization); type: in vivo, human
Excerpt: BIM-26226, a bombesin antagonist, was further administered to a patient to test its efficacy in lowering the pulmonary systolic or diastolic pressure.
The patient, complained of increasing shortness of breath under moderate exertion. […] A clinical diagnosis of pulmonary hypertension, secondary to liver disease, was made.
An 8 G french introducer (Arrow, Reading, Pa.) was inserted into the right internal jugular vein of the patient. A 7 G french triple lumen-balloon inflation lumen Swan-Ganz line (Abbot, N. Chicago, Ill.) was inserted through the introducer. The catheter was first floated through the right atrium and ventricle into the pulmonary artery, and was then connected to a Hewlett Packard monitor (Model 66s, M1166A) using modules M1006A, M1020A, 1029A, 1008A, and M1166A. Measurements of central venous pressure, pulmonary artery pressure, mean pulmonary pressure, cardiac index, cardiac output, and pulmonary vascular resistance were analyzed directly. A 20 G arterial line was inserted into the left radial artery (Arrow, Reading, Pa.) for measurement of systemic blood pressure and blood gas partial pressure estimations.
The study was conducted in two phases. The placebo phase, which lasted 24 hours, consisted of an infusion of normal saline (0.9% NaCl) at a constant rate of 50 ml/hr. The active phase consisted of an infusion of BIM-26226 in increasing concentrations. BIM-26226 was supplied as lyophilized powder. BIM-26226 was reconstituted in water, and then diluted in normal saline initially to give an infusion concentration of 5 μg/kg/hr. The concentration was increased every four hours to a maximum of 200 mcg/kg/hr. BIM-26226 was administered through the jugular line at a constant infusion rate of 50 ml/hr. Observations as detailed above were recorded at least hourly, though more often if indicated. In addition, blood samples were taken every four hours for biochemical profile, hematological screening, and both peripheral and central GRP levels. The GRP level samples were collected on ice, centrifuged, and snap-frozen. Analysis on the GRP levels was performed using an established radioimmunoassay.
FIG. 1 summarizes the study. The pulmonary systolic and diastolic pressures are compared between both the infusion of the saline placebo (Plac sys and Plac dias) and BIM-26226 (BIM sys and BIM dias). The doses of BIM-26226 administered and the administration scheme are shown at the top of FIG. 1, e.g., 5 μg/kg/hr four hours initially.

GRP receptor [4] = biological target: T1, GRP receptor; experiment: GRP receptor binding assay ([125I-Tyr4]bombesin, AR42J cell membranes); conditions: 30 min, 4° C., read-out: IC50 (concentration required to inhibit 50% of specific binding of [125I-Tyr4]bombesin)
Method: Membranes for the GRP receptor binding assay were obtained by homogenizing cultured AR42J cells (ATCC No. CRL-1492; American Type Culture Collection, Rockville, Md.) using a Polytron homogenizer (Brinkman Instruments, Westchester, N.Y.) at a setting of 6 for 15 sec. in an ice-cold 50 mM Tris-HCl buffer (Buffer A; Sigma, St. Louis, Mo.). See Singh, et al., 258 Am. J. Physiol. […] (1990). The homogenate was centrifuged twice at 39,000×g (10 min.) with an intermediate resuspension in fresh Buffer A. The final pellets were resuspended in Buffer A containing 0.1 mg/ml bacitracin and 0.1% bovine serum albumin (Buffer B) and held on ice for the receptor binding assay. Both bacitracin and bovine serum albumin were purchased from Sigma, St. Louis, Mo. Aliquots (0.4 ml) of the cell suspension were incubated with 0.05 ml of [^[…] ] bombesin (~2200 Ci/mmol; New England Nuclear, Boston, Mass.) in Buffer B and 0.05 ml of the test peptide (e.g., BIM-26226) at various concentrations (e.g., 0M to 10^-6 M) in Buffer B. […] Louis, Mo.). The filters were then washed three times with 5 ml aliquots of ice-cold Buffer A. Specific binding was defined as the total [^[…] ]bombesin bound in the presence of the test peptide minus that bound in the presence of 1 μM unlabeled GRP. […] BIM-26226, thus, has a high affinity for the GRP receptor. In other words, it is a GRP ligand.

Molecule: CSCC[C@H](NC(=O)[C@H](CC(C)C)NC(=O)[C@H](Cc1cnc[nH]1)NC(=O)CNC(=O)[C@@H](NC(=O)[C@H](C)NC(=O)[C@H](Cc1c[nH]c2ccccc12)NC(=O)[C@H](CCC(N)=O)NC(=O)[C@H](CC(N)=O)NC(=O)CNC(=O)[C@H](CC(C)C)NC(=O)[C@H](CCCN=C(N)N)NC(=O)[C@H](CCC(N)=O)NC(=O)[C@@H]1CCC(=O)N1)C(C)C)C(N)=O [Bombesin]
- increase of intracellular calcium concentration (GRP receptor [1]): 505 nM
- in vivo pulmonary haemodynamic effect (pulmonary haemodynamics): neither bombesin nor GRP, under a wide range of experimental conditions, have any demonstrable in vivo pulmonary haemodynamic effect
- effect on isolated pulmonary arteries [2]: not to have an effect

Molecule: GRP: 27-amino acid peptide first isolated from the porcine gut (APVSVGGGTVLAKMYPRGNHWAVGHLM; ends and bridges not checked; UniProt P63153 24-50, looked up)
- in vivo pulmonary haemodynamic effect (pulmonary haemodynamics): neither bombesin nor GRP, under a wide range of experimental conditions, have any demonstrable in vivo pulmonary haemodynamic effect

Molecule: COc1ccc([C@@H]2Sc3ccccc3N(CCN(C)C)C(=O)[C@@H]2OC(C)=O)cc1 [diltiazem, reference compound]
- effect on pulmonary pressure (therapeutic trial) ([3]; patient, before the BIM-26226 study): did not lower the pulmonary pressure

- IC50 (GRP receptor [4]): 0.5 nM
- increase of intracellular calcium concentration (GRP receptor [1]): no effect
- increase of intracellular calcium concentration by bombesin (10 nM) after pretreatment with antagonist (GRP receptor [1]; pretreated with BIM-26226 (10 nM)): 300 nM
- reduction of bombesin-induced calcium increase versus bombesin alone (GRP receptor [1]; pretreated with BIM-26226 (10 nM), bombesin 10 nM): 205 nM
- blood biochemistry ([3]; upon infusion): no changes
- cardiac index ([3]; upon infusion): no changes
- cardiac output ([3]; upon infusion): no changes
- peripheral vascular resistance ([3]; upon infusion): no changes
- right atrial pressure ([3]; upon infusion): no changes
Molecule: COC(=O)[C@H](CC(C)C)NC(=O)[C@H](Cc1c[nH]cn1)NC(=O)[C@@H](C)NC(=O)[C@@H](NC(=O)[C@H](C)NC(=O)[C@H](Cc1c[nH]c2ccccc12)NC(=O)[C@H](CCC(N)=O)NC(=O)[C@H](N)Cc1c(F)c(F)c(F)c(F)c1F)C(C)C [BIM-26226, H-D-F5 -Phe-Gln-TrP-Ala-Val-D-Ala-His-Leu-O-CH3] (H-[dPhe(F5)]QWAV[dA]HL-OMe)
- adverse events ([3]; active phase of infusion): Other than a mild urticarial response during the early active phase, the patient had no adverse events
- pulmonary diastolic pressure ([3]; infusion rate of 200 μg/kg/hr, from 35 mm Hg): 42 mm Hg
- pulmonary systolic pressure ([3]; infusion rate of 200 μg/kg/hr, from 90 mm Hg): 55 mm Hg
- infusion rate at which pulmonary systolic pressure started to decrease ([3]; intravenous infusion, increasing doses every four hours): 25 µg/kg/h
- pulmonary systolic pressure upon rechallenge ([3]; rechallenge after discontinuation): again dramatically decreased
- systemic blood pressure ([3]; upon infusion): no changes
- period over which pulmonary pressure rose upon discontinuation of drug administration ([3]; within two half-lives of the drug): 15 min

Source: patent publication US5650395A, “Treatment of pulmonary hypertension” (priority 1995, dated 1997)
